Test results taken from patent US20230416248A1, “COMPOUNDS AND USES THEREOF” (Foghorn Therapeutics Inc., priority 2020, published 2023).
Where two headings read alike, the source gives them in different places.

Columns and labels:
BRM = biological target: T1, BRM (Homo sapiens, UniProt P51531); experiment: ATPase catalytic activity of BRM, ADP-Glo in vitro biochemical assay; settings: for IC50: 30 nM BRM, 400 μM ATP; for Ratio* (BRG1 IC50 (μM) divided by BRM IC50 (μM)): selectivity ratio BRG1 IC50 / BRM IC50
T1 construct: made in house; host or cells: High Five insect cells
T1 sequence (P51531 whole entry): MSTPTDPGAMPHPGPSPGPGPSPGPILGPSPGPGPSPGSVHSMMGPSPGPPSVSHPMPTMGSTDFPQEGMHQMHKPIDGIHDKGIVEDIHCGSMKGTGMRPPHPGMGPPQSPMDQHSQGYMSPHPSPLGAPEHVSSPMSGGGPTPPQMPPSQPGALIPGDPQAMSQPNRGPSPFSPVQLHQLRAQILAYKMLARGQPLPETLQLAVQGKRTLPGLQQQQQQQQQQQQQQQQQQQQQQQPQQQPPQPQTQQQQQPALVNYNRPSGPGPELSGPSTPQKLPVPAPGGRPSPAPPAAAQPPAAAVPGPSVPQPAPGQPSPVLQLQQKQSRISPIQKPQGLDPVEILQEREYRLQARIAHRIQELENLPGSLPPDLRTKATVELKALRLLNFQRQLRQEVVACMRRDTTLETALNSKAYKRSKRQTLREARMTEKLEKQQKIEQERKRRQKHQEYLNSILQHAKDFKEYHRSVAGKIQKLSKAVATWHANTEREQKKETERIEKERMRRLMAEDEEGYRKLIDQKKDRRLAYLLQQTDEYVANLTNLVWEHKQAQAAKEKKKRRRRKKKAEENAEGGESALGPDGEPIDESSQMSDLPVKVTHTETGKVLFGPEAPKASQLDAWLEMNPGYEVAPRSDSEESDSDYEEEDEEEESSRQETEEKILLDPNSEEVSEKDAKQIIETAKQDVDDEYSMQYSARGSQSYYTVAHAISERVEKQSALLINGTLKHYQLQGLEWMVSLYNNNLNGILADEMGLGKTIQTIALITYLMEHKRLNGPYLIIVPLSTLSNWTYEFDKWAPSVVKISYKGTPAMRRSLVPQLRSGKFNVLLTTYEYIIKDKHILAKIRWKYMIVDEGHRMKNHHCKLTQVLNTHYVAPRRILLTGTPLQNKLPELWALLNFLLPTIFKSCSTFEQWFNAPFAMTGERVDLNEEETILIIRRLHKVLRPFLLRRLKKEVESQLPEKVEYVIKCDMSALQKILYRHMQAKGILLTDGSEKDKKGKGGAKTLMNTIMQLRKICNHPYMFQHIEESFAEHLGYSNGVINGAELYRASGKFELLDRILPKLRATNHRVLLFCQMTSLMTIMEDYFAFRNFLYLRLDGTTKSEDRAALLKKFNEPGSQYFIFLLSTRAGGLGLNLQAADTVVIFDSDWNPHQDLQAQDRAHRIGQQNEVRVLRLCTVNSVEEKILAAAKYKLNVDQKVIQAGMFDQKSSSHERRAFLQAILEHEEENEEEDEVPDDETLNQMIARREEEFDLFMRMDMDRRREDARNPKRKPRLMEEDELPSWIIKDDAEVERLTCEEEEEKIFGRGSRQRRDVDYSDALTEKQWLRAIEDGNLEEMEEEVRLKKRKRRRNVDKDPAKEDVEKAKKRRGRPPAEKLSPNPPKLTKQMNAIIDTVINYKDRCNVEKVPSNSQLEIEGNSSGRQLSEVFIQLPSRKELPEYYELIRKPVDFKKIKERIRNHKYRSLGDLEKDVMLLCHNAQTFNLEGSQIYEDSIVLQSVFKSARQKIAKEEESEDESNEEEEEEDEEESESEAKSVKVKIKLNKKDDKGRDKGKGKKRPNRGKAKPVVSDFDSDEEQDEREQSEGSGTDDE
In short: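 ADP-Glo luminescence, after depletion of leftover ATP and conversion of ADP, reported the activity. The 1 h room-temperature reaction held 400 μM ATP, 20 nM salmon sperm DNA and 30 nM BRM in 20 mM Tris pH 8, 20 mM MgCl2, 50 mM NaCl, 0.1% Tween-20, 1 mM DTT.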

BRG-1 = biological target: T2, BRG-1 (Homo sapiens, UniProt P51532); experiment: ATPase catalytic activity of BRG-1, ADP-Glo in vitro biochemical assay; settings: 30 nM BRG-1, 400 μM ATP, read-out: BRG1 IC50
T2 construct: made in house; host or cells: High Five insect cells
T2 sequence (P51532 whole entry): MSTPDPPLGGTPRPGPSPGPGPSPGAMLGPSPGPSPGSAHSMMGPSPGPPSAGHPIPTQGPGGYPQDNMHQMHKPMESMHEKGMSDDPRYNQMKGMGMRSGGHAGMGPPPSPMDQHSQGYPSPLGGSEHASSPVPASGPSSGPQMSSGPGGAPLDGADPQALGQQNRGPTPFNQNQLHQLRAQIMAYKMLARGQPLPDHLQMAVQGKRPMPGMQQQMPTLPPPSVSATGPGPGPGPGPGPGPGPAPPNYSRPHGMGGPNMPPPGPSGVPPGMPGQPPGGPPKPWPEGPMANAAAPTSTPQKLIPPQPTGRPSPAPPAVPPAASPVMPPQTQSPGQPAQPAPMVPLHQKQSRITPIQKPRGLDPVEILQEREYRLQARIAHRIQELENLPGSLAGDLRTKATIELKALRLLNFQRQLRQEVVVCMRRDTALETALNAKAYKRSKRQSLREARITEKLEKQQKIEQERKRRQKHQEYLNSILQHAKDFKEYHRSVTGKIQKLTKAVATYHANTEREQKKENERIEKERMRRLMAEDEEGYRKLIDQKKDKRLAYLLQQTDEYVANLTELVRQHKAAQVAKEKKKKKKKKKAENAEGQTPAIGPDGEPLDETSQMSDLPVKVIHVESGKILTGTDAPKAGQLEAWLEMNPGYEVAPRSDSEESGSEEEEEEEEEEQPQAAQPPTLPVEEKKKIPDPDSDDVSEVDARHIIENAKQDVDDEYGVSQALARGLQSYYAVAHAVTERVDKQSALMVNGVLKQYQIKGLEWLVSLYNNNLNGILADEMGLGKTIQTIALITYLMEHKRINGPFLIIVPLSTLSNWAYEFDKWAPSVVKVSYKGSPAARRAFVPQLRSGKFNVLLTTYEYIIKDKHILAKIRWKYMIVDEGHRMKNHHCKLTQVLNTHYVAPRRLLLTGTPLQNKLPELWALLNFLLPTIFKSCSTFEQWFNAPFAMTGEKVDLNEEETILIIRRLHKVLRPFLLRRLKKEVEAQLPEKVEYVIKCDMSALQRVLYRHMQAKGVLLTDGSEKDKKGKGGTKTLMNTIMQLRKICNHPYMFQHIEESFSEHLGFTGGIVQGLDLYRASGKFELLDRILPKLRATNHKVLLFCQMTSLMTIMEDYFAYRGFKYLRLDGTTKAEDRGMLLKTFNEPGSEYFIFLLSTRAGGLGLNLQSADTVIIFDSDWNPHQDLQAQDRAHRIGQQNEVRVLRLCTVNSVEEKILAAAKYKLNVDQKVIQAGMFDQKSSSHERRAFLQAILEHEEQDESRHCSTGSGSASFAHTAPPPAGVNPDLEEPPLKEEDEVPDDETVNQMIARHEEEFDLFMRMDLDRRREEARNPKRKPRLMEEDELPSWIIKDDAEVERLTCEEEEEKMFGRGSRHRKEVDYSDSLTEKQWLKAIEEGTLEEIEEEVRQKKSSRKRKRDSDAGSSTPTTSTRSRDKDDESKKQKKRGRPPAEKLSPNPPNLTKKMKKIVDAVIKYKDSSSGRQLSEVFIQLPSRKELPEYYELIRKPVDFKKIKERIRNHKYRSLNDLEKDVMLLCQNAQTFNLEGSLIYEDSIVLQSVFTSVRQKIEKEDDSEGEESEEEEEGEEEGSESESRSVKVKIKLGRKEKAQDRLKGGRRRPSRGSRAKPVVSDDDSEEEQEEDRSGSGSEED
In short: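 Luminescence read-out: ADP formed by BRG-1 ATPase is converted to ATP and detected by luciferase. Residual ATP is first removed with ADP-Glo Reagent for 40 min at RT; detection reagent is then incubated 60 min at RT before reading.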

[1] = ATPase catalytic activity, ADP-Glo

IC50 (BRM; [1])	Ratio* (BRM; ratio of BRG1 IC50 to BRM IC50)	IC50 (BRG-1; [1])	IC50 (BRM; ADP-Glo ATPase assay)	Ratio* (BRG1 IC50 (μM) divided by BRM IC50 (μM)) (BRM)	IC50 (BRG-1; ADP-Glo ATPase assay)	Ratio* (BRM; ratio BRG1 IC50 / BRM IC50)	SMILES
16.4 nM	10.89	178 nM					CN1CCN(c2ccc3cnc(CNC(=O)c4ccc5c(c4)S(=O)(=O)CCOC5)cc3n2)c2ncccc21 [Compound 442]
			10.8 nM	4.70	50.7 nM		C[C@@H]1CN(c2cccc(-c3ccc4cnc(CNC(=O)c5ccc(CC(F)F)c(S(C)(=O)=O)c5)cc4n3)n2)C[C@H](C)O1 [Compound 138]
			7.9 nM	7.32	57.7 nM		Cc1cc(C(=O)NCc2cc3nc(-c4cccc(N5C[C@@H](C)O[C@@H](C)C5)n4)ccc3cn2)cc2c1COCCS2(=O)=O [Compound 101]
104 nM	24.78	2570 nM					O=C(NCc1cc2nc(N3CCc4ccc(Cl)cc43)ccc2cn1)c1ccc2c(c1)S(=O)(=O)CCOC2 [Compound 654]
			58.5 nM	7.00	410 nM		O=C(NCc1cc2nc(-c3ccccc3OC3CC3)ccc2cn1)c1ccc2c(c1)S(=O)(=O)CCOC2 [Compound 232]
			7 nM	3.05	21.3 nM		C[C@@H]1CN(c2cncc(-c3ccc4cnc(CNC(=O)c5ccc6c(c5)S(=O)(=O)CCOC6)cc4c3)n2)C[C@H](C)O1 [Compound 211]
387 nM	6.28	2430 nM					COC[C@H](NC(=O)c1ccc2c(c1)S(=O)(=O)CCOC2)c1cc2nc(-c3cccc(C4CC4)n3)ccc2cn1 [Compound 507]
			31.1 nM		444 nM	14.27	COc1ncc2c(c1F)N(c1ccc3cnc(CNC(=O)c4ccc5c(c4)S(=O)(=O)CCOC5)cc3n1)CCC2 [Compound 783]
			27.5 nM		1060 nM	38.76	O=C(NCc1cc2nc(N3CCOc4ccc(C(F)CF)nc43)ccc2cn1)c1ccc2c(c1)S(=O)(=O)CCOC2 (stereo not drawn) [Compound 838]
			262 nM	9.44	2470 nM		CO[C@@H](C)c1cccc(-c2ccc3cnc(CNC(=O)c4ccc5c(c4)S(=O)(=O)CCOC5)cc3n2)n1 [Compound 69]
58.3 nM	19.38	1130 nM					Cc1cc2c(nc1C1CC1)N(c1ccc3cnc(CNC(=O)c4ccc5c(c4)S(=O)(=O)CCOC5)cc3n1)CCC2 [Compound 632]
20.9 nM	8.47	177 nM					N#Cc1ccc2c(c1)CCCN2c1ccc2cnc(CNC(=O)c3ccc4c(c3)S(=O)(=O)CCOC4)cc2n1 [Compound 527]
12 nM	18.81	226 nM					COc1cc(C(F)F)ccc1-c1ccc2cnc(CNC(=O)c3ccc4c(c3)S(=O)(=O)[C@@H](C)COC4)cc2n1 [Compound 320]
			6.6 nM		30.4 nM	4.60	COCc1cc2c(c(F)c1Cl)N(c1ccc3cnc(CNC(=O)c4ccc5c(c4)S(=O)(=O)CCOC5)cc3n1)CCO2 [Compound 794]
4.4 nM	10.04	43.8 nM					COc1ccnc2c1CCCN2c1ccc2cnc(CNC(=O)c3ccc4c(c3)S(=O)(=O)CCOC4)cc2n1 [Compound 439]
			9.5 nM	13.94	132 nM		C[C@@H]1CN(c2cccc(-c3ccc4cnc(CNC(=O)c5ccc(Cl)c(S(C)(=O)=O)c5)cc4n3)n2)C[C@H](C)O1 [Compound 213]
105 nM	3.69	387 nM					COCCN1CCCOc2c(-c3ccc4cnc(CNC(=O)c5ccc6c(c5)S(=O)(=O)CCOC6)cc4n3)cccc21 [Compound 313]
			16.2 nM	6.14	99.7 nM		CCO[C@@H]1CCOc2c(-c3ccc4cnc(CNC(=O)c5ccc6c(c5)S(=O)(=O)CCOC6)cc4n3)cccc21 [Compound 65]
20.6 nM	23.93	494 nM					C[C@@H]1CN(c2cccc(-c3ccc4cnc(CNC(=O)c5ccc6c(c5)S(=O)(=O)CCCN6C)cc4n3)n2)C[C@H](C)O1 [Compound 415]
			11.8 nM		140 nM	11.88	O=C(NCc1cc2nc(N3CCCc4cc5c(cc43)OCCO5)ccc2cn1)c1ccc2c(c1)S(=O)(=O)CCOC2 [Compound 793]
227 nM	3.90	883 nM					COC[C@H]1COc2c(-c3ccc4cnc(CNC(=O)c5ccc6c(c5)S(=O)(=O)CCOC6)cc4n3)cccc2N1C [Compound 638]
102 nM	7.66	780 nM					COC[C@@H]1COc2c(-c3ccc4cnc(CNC(=O)c5ccc6c(c5)S(=O)(=O)CCOC6)cc4n3)cccc2N1C [Compound 639]
			6.5 nM	3.66	23.8 nM		C[C@@H]1CN(c2cccc(-c3ccc4cnc(CNC(=O)c5cc(F)c6c(c5)S(=O)(=O)CCOC6)cc4n3)n2)C[C@H](C)O1 [Compound 240]

The remaining lines, values behind:

SMILES	IC50 (BRM; [1])	Ratio* (BRM; ratio of BRG1 IC50 to BRM IC50)	IC50 (BRG-1; [1])	IC50 (BRM; ADP-Glo ATPase assay)	Ratio* (BRG1 IC50 (μM) divided by BRM IC50 (μM)) (BRM)	IC50 (BRG-1; ADP-Glo ATPase assay)	Ratio* (BRM; ratio BRG1 IC50 / BRM IC50)
CCN(CC1COC1)c1cccc(-c2ccc3cnc(CNC(=O)c4ccc5c(c4)S(=O)(=O)CCOC5)cc3n2)n1 [Compound 370]	14.6 nM	10.43	152 nM				
CC1CCc2ccc(C(=O)NCc3cc4nc(-c5cccc(N6C[C@@H](C)O[C@@H](C)C6)n5)ccc4cn3)cc2S1(=O)=O (stereo partly drawn) [Compound 324]	24.8 nM	24.73	614 nM				
[2H]C1([2H])OC([2H])([2H])[C@@H](C)S(=O)(=O)c2cc(C(=O)NCc3cc4nc(-c5cccc(N6C[C@@H](C)O[C@@H](C)C6)n5)ccc4cn3)ccc21 [Compound 717]				77 nM		432 nM	5.61
O=C(NCc1cc2nc(N3CCc4cnccc4C3)ccc2cn1)c1ccc2c(c1)S(=O)(=O)CCOC2 [Compound 87]				689 nM	7.14	4920 nM	
C[C@@H]1CN(c2cccc(-c3ccc4cnc(CNC(=O)c5cnc6c(c5)S(=O)(=O)CCCCC6)cc4n3)n2)C[C@H](C)O1 [Compound 451]	5 nM	1.60	8 nM				
Cc1ccnc2c1CCN2c1ccc2cnc(CNC(=O)c3ccc4c(c3)S(=O)(=O)CCOC4)cc2n1 [Compound 743]				27.5 nM		120 nM	4.35
COc1ccc(-c2ccc3cnc(CNC(=O)c4ccc5c(c4)S(=O)(=O)CCOC5)cc3n2)nc1 [Compound 850]				664 nM		4560 nM	6.87
CO[C@H]1CCCN(c2cccc(-c3ccc4cnc(CNC(=O)c5ccc6c(c5)S(=O)(=O)CCOC6)cc4n3)n2)C1 [Compound 93]				9.6 nM	9.74	93.6 nM	
C[C@@H]1CN(c2cccc(-c3ccc4cnc(CNC(=O)c5cc6c(cc5F)COCCS6(=O)=O)cc4n3)n2)C[C@H](C)O1 [Compound 648]	5 nM	3.85	19.4 nM				
COCc1ccc2c(c1)N(c1ccc3cnc(CNC(=O)c4ccc5c(c4)S(=O)(=O)CCOC5)cc3n1)CCC2 [Compound 605]	11.7 nM	16.04	187 nM				
C[C@H]1CCN(C)c2nc(-c3ccc4cnc(CNC(=O)c5ccc6c(c5)S(=O)(=O)CCOC6)cc4n3)ccc21 [Compound 694]	34.2 nM	8.38	287 nM				
O=C(NCc1cc2nc(N3CCCc4ccc(C5CCCO5)nc43)ccc2cn1)c1ccc2c(c1)S(=O)(=O)CCOC2 (stereo not drawn) [Compound 659]	42.7 nM	24.28	1040 nM				
O=C(NCc1cc2nc(N3CCOc4cccnc43)ccc2cn1)c1ccc2c(c1)S(=O)(=O)CCOC2 [Compound 367]	8.4 nM	17.87	151 nM				
O=C(NCc1cc2nc(-c3ccccc3OCC3CC3)ccc2cn1)c1ccc2c(c1)S(=O)(=O)CCOC2 [Compound 815]				193 nM		1450 nM	7.51
CCN(c1cccc(-c2ccc3cnc(CNC(=O)c4cc(F)c5c(c4)S(=O)(=O)CCOC5)cc3n2)n1)C1CC1 [Compound 338]	20.1 nM	10.88	219 nM				
COCc1cc2c(nc1C(F)F)N(c1ccc3cnc(CNC(=O)c4ccc5c(c4)S(=O)(=O)CCOC5)cc3n1)CCC2 [Compound 835]				17.1 nM		156 nM	9.15
C[C@@H]1CN(c2nc(-c3ccc4cnc(CNC(=O)c5ccc6c(c5)S(=O)(=O)CCOC6)cc4n3)ccc2F)C[C@H](C)O1 [Compound 111]				6 nM	4.58	27.4 nM	
N=S1(=O)CCOCc2ccc(C(=O)NCc3cc4nc(-c5cncc(C6CC6)n5)ccc4cn3)cc21 (stereo not drawn) [Compound 286]				351 nM	13.91	4890 nM	
COCc1ccc(C(=O)NCc2cc3nc(-c4cncc(C5CC5)n4)ccc3cn2)cc1S(C)(=O)=O [Compound 273]				119 nM	23.47	2800 nM	
O=C(NCc1cc2nc(-c3cccc(C4(F)CC(F)(F)C4)n3)ccc2cn1)c1ccc2c(c1)S(=O)(=O)CCOC2 [Compound 170]				109 nM	6.33	689 nM	
